Measured values: patent US20230242530A1, “8-(AZETIDIN-1-YL)-[1,2,4]TRIAZOLO[1,5-A]PYRIDINYL COMPOUNDS, COMPOSITIONS AND METHODS OF USE THEREOF” (Genentech, Inc., priority 2016, published 2023)
pEC50, pKi: −log10 of the molar value.

Key:
[1] = test system: JAK1-dependent STAT6 phosphorylation downstream of IL-13 stimulation in BEAS-2B cells; test: JAK1 pathway assay in cell lines: IL-13 p-STAT6 BEAS-2B; format: cell-based; settings: BEAS-2B human bronchial epithelial cells, 1 hr compound, IL-13 15 min, MSD readout
Method: JAK1 Pathway Assay in Cell Lines was Carried Out as Follows:
Inhibitor potency (EC50) was determined in cell-based assays designed to measure JAK1 dependent STAT phosphorylation. As noted above, inhibition of IL-4, IL-13, and IL-9 signalling by blocking the Jak/Stat signaling pathway can alleviate asthmatic symptoms in pre-clinical lung inflammation models (Mathew et al., 2001, J Exp Med 193(9): 1087-1096; Kudlacz et. al., 2008, Eur J. Pharmacol 582(1-3): 154-161).
In one assay approach, TF-1 human erythroleukemia cells obtained from the American Type Culture Collection (ATCC; Manassas, Va.) were used to measure JAK1-dependent STAT6 phosphorylation downstream of IL-13 stimulation. Prior to use in the assays, TF-1 cells were starved of GM-CSF overnight in OptiMEM medium (Life Technologies, Grand Island, N.Y.) supplemented with 0.5% charcoal/dextran stripped fetal bovine serum (FBS), 0.1 mM non-essential amino acids (NEAA), and 1 mM sodium pyruvate. The assays were run in 384-well plates in serum-free OptiMEM medium using 300,000 cells per well. In a second assay approach, BEAS-2B human bronchial epithelial cells obtained from ATCC were plated at 100,000 cells per well of a 96-well plate one day prior to the experiment. The BEAS-2B assay was run in complete growth medium (bronchial epithelial basal medium plus bulletkit; Lonza; Basel, Switzerland).
Test compounds were serially diluted 1:2 in DMSO and then diluted 1:50 in medium just before use. Diluted compounds were added to the cells, for a final DMSO concentration of 0.2%, and incubated for 30 mi (for the TF-1 assay) or 1 hr (for the BEAS-2B assay) at 37 QC. Then, cells were stimulated with human recombinant cytokine at their respective EC90 concentrations, as previously determined for each individual lot. Cells were stimulated with IL-13 (R&D Systems, Minneapolis, Minn.) for 15 min at 37 °C. The TF-1 cell reactions were stopped by the direct addition of 10× lysis buffer (Cell Signaling Technologies, Danvers, Mass.), whereas the BEAS-2B cell incubations were halted by the removal of medium and addition of 1× lysis buffer. The resultant samples were frozen in the plates at −80 °C. Compound mediated inhibition of STAT6 phosphorylation was measured in the cell lysates using MesoScale Discovery (MSD) technology (Gaithersburg, Md.). EC50 values were determined as the concentration of compound required for 50% inhibition of STAT phosphorylation relative to that measured for the DMSO control.

[2] = molecular target: T1, isolated recombinant JAK1 kinase domain (Homo sapiens, UniProt P23458); test: JAK enzyme assay, JAK1 kinase domain (Caliper LabChip); format: biochemical; settings: 1.5 nM JAK1, ATP 25 μM, Morrison tight binding model
T1 construct: isolated recombinant JAK1 and JAK2 kinase domain
T1 sequence (P23458 875-1153 limits assumed): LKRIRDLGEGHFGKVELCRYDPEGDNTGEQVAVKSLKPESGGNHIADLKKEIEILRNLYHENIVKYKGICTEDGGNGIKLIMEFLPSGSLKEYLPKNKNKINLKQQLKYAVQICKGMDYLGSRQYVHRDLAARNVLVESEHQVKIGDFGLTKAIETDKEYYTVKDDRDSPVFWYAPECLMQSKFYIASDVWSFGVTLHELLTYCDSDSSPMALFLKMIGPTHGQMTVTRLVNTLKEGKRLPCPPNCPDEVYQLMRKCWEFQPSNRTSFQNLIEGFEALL
Method: (§1) JAK Enzyme Assays were Carried Out as Follows:
(§2) The activity of the isolated recombinant JAK1 and JAK2 kinase domain was measured by monitoring phosphorylation of a peptide derived from JAK3 (Val-Ala-Leu-Val-Asp-Gly-Tyr-Phe-Arg-Leu-Thr-Thr, fluorescently labeled on the N-terminus with 5-carboxyfluorescein) using the Caliper LabChip® technology (Caliper Life Sciences, Hopkinton, Mass.). […] Reactions were incubated at 22 °C in 384-well polypropylene microtiter plates for 30 minutes and then stopped by addition of 25 μL of an EDTA containing solution (100 mM HEPES buffer (pH 7.2), 0.015% Brij-35, 150 mM EDTA), resulting in a final EDTA concentration of 50 mM. After termination of the kinase reaction, the proportion of phosphorylated product was determined as a fraction of total peptide substrate using the Caliper LabChip® 3000 according to the manufacturer's specifications. Ki values were then determined using the Morrison tight binding model (Morrison, J. F., Biochim. Biophys. Acta. 185:269-296 (1969); William, J. W. and Morrison, J. F., Meth. Enzymol., 63:437-467 (1979)) modified for ATP-competitive inhibition [Ki=Ki,app/(1+[ATP]/Km,app)].

[3] = molecular target: T2, isolated recombinant JAK2 kinase domain (Homo sapiens, UniProt O60674); test: JAK enzyme assay, JAK2 kinase domain (Caliper LabChip); format: biochemical; settings: 0.2 nM JAK2, ATP 25 μM, Morrison tight binding model
T2 construct: isolated recombinant JAK1 and JAK2 kinase domain
T2 sequence (O60674 849-1124 limits assumed): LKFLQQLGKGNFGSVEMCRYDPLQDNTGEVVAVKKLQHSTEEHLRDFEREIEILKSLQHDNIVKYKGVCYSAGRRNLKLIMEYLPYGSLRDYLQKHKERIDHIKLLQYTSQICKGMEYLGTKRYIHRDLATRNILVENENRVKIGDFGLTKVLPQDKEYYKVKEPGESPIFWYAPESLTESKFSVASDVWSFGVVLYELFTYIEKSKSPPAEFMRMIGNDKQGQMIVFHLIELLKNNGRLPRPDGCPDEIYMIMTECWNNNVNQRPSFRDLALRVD
Method: as §1, §2

CCc1cnn(C2(CC#N)CN(c3cccn4nc(Nc5ccc6c(c5)CCN([C@@H]5CCOC5)C6)nc34)C2)c1 (stereo in doubt) [Example 61, 2-[3-(4-ethylpyrazol-1-yl)-1-[2-[[2-[rac-(3R)-tetrahydrofuran-3-yl]-3,4-dihydro-1H-isoquinolin-6-yl]amino]-[1,2,4]triazolo[1,5-a]pyridin-8-yl]azetidin-3-yl]acetonitrile]
pEC50 [1]: 8.10
pKi [2]: 9.40
pKi [3]: 9.40

CCc1cnn(C2(CC#N)CN(c3cccn4nc(Nc5ccc6c(c5)CCN([C@H]5CCOC5)C6)nc34)C2)c1 (stereo in doubt) [Example 62, 2-[3-(4-ethylpyrazol-1-yl)-1-[2-[[2-[rac-(3S)-tetrahydrofuran-3-yl]-3,4-dihydro-1H-isoquinolin-6-yl]amino]-[1,2,4]triazolo[1,5-a]pyridin-8-yl]azetidin-3-yl]acetonitrile]
pEC50 [1]: 7.31
pKi [2]: 9.40
pKi [3]: 9.40

CCc1cnn(C2(CC#N)CN(c3cccn4nc(Nc5cnn(CC(=O)N6CCN(C)CC6)c5)nc34)C2)c1 [Example 1, 2-[3-(4-ethyl-1H-pyrazol-1-yl)-1-[2-([1-[2-(4-methylpiperazin-1-yl)-2-oxoethyl]-1H-pyrazol-4-yl]amino)-[1,2,4]triazolo[1,5-a]pyridin-8-yl]azetidin-3-yl]acetonitrile]
pEC50 [1]: 7.54
pKi [2]: 9.10
pKi [3]: 8.70

CCc1cnn(C2(CC#N)CN(c3cccn4nc(Nc5cn[nH]c5)nc34)C2)c1 [Example 2, 2-[3-(4-ethyl-1H-pyrazol-1-yl)-1-[2-[(1H-pyrazol-4-yl)amino]-[1,2,4]triazolo[1,5-a]pyridin-8-yl]azetidin-3-yl]acetonitrile]
pKi [2]: 7.76
pKi [3]: 7.48

CCc1cnn(C2(CC#N)CN(c3cccn4nc(Nc5cnn(CCCO)c5)nc34)C2)c1 [Example 3, 2-[3-(4-ethyl-1H-pyrazol-1-yl)-1-(2-[[1-(3-hydroxypropyl)-1H-pyrazol-4-yl]amino]-[1,2,4]triazolo[1,5-a]pyridin-8-yl)azetidin-3-yl]acetonitrile]
pKi [2]: 7.40
pKi [3]: 7.19

CCc1cnn(C2(CC#N)CN(c3cccn4nc(Nc5cnn(CC(=O)N6CCC(NCC7(C#N)CC7)CC6)c5)nc34)C2)c1 [Example 4, 1-[[(1-[2-[4-([8-[3-(cyanomethyl)-3-(4-ethyl-1H-pyrazol-1-yl)azetidin-1-yl]-[1,2,4]triazolo[1,5-a]pyridin-2-yl]amino)-1H-pyrazol-1-yl]acetyl]piperidin-4-yl)amino]methyl]cyclopropane-1-carbonitrile]
pEC50 [1]: 7.41
pKi [2]: 9.22
pKi [3]: 8.34

CCc1cnn(C2(CC#N)CN(c3cccn4nc(Nc5cccc(CC(=O)N6CCN(C)CC6)c5)nc34)C2)c1 [Example 5, 2-[3-(4-ethyl-1H-pyrazol-1-yl)-1-[2-([3-[2-(4-methylpiperazin-1-yl)-2-oxoethyl]phenyl]amino)-[1,2,4]triazolo[1,5-a]pyridin-8-yl]azetidin-3-yl]acetonitrile]
pEC50 [1]: 6.92
pKi [2]: 8.72
pKi [3]: 8.51

CN1CCN(C(=O)Cn2cc(Nc3nc4c(N5CC(CC#N)(n6cc(Br)cn6)C5)cccn4n3)cn2)CC1 [Example 6, 2-[3-(4-bromo-1H-pyrazol-1-yl)-1-[2-([1-[2-(4-methylpiperazin-1-yl)-2-oxoethyl]-1H-pyrazol-4-yl]amino)-[1,2,4]triazolo[1,5-a]pyridin-8-yl]azetidin-3-yl]acetonitrile]
pKi [2]: 8.02
pKi [3]: 7.80

CN1CCN(C(=O)Cn2cc(Nc3nc4c(N5CC(CC#N)(c6ccc(Cl)cc6)C5)cccn4n3)cn2)CC1 [Example 7, 2-[3-(4-chlorophenyl)-1-[2-[[1-[2-(4-methylpiperazin-1-yl)-2-oxo-ethyl]pyrazol-4-yl]amino]-[1,2,4]triazolo[1,5-a]pyridin-8-yl]azetidin-3-yl]acetonitrile]
pKi [2]: 7.43
pKi [3]: 7.30

CN1CCN(C(=O)Cn2cc(Nc3nc4c(N5CC(CC#N)(N6CCOCC6)C5)cccn4n3)cn2)CC1 [Example 8]
pEC50 [1]: 7.92
pKi [2]: 9.52
pKi [3]: 8.82

CN1CCN(C(=O)Cn2cc(Nc3nc4c(N5CC(CC#N)(N6CCN(C)CC6)C5)cccn4n3)cn2)CC1 [Example 9, 2-[3-(4-methylpiperazin-1-yl)-1-[2-[[1-[2-(4-methylpiperazin-1-yl)-2-oxo-ethyl]pyrazol-4-yl]amino]-[1,2,4]triazolo[1,5-a]pyridin-8-yl]azetidin-3-yl]acetonitrile]
pEC50 [1]: 7.47
pKi [2]: 9.22
pKi [3]: 8.60

Cc1cnn(C2(CC#N)CN(c3cccn4nc(Nc5cnn(CC(=O)N6CCN(C)CC6)c5)nc34)C2)c1 [Example 10]
pEC50 [1]: 7.74
pKi [2]: 9.40
pKi [3]: 8.82

CN1CCN(C(=O)Cn2cc(Nc3nc4c(N5CC(CC#N)(N6CCC(C(F)(F)F)CC6)C5)cccn4n3)cn2)CC1 [Example 11]
pEC50 [1]: 7.43
pKi [2]: 8.89
pKi [3]: 8.24

CN1CCN(C(=O)Cn2cc(Nc3nc4c(N5CC(CC#N)(N6CCC(F)(F)CC6)C5)cccn4n3)cn2)CC1 [Example 12, 2-[3-(4,4-difluoro-1-piperidyl)-1-[2-[[1-[2-(4-methylpiperazin-1-yl)-2-oxo-ethyl]pyrazol-4-yl]amino]-[1,2,4]triazolo[1,5-a]pyridin-8-yl]azetidin-3-yl]acetonitrile]
pEC50 [1]: 7.57
pKi [2]: 9.05
pKi [3]: 8.62

CN1CCN(C(=O)Cn2cc(Nc3nc4c(N5CC(CC#N)(N6CCC(C#N)CC6)C5)cccn4n3)cn2)CC1 [Example 13, 1-[3-(cyanomethyl)-1-[2-[[1-[2-(4-methylpiperazin-1-yl)-2-oxo-ethyl]pyrazol-4-yl]amino]-[1,2,4]triazolo[1,5-a]pyridin-8-yl]azetidin-3-yl]piperidine-4-carbonitrile]
pEC50 [1]: 7.09
pKi [2]: 8.80
pKi [3]: 8.28

CSc1ccc(C2(CC#N)CN(c3cccn4nc(Nc5cnn(CC(=O)N6CCN(C)CC6)c5)nc34)C2)cc1 [Example 14]
pEC50 [1]: 7.14
pKi [2]: 8.74
pKi [3]: 8.35

CN1CCN(C(=O)Cn2cc(Nc3nc4c(N5CC(CC#N)(n6cc(C(F)(F)F)cn6)C5)cccn4n3)cn2)CC1 [Example 15]
pEC50 [1]: < 6.00
pKi [2]: 8.66
pKi [3]: 8.03

CC(C)Sc1ccc(C2(CC#N)CN(c3cccn4nc(Nc5cnn(CC(=O)N6CCN(C)CC6)c5)nc34)C2)cc1 [Example 16, 2-[3-(4-isopropylsulfanylphenyl)-1-[2-[[1-[2-(4-methylpiperazin-1-yl)-2-oxo-ethyl]pyrazol-4-yl]amino]-[1,2,4]triazolo[1,5-a]pyridin-8-yl]azetidin-3-yl]acetonitrile]
pEC50 [1]: 7.72
pKi [2]: 9.22
pKi [3]: 8.43

CN1CCN(C(=O)Cn2cc(Nc3nc4c(N5CC(CC#N)(n6cc(I)cn6)C5)cccn4n3)cn2)CC1 [Example 89, 2-[3-(4-iodopyrazol-1-yl)-1-[2-[[1-[2-(4-methylpiperazin-1-yl)-2-oxo-ethyl]pyrazol-4-yl]amino]-[1,2,4]triazolo[1,5-a]pyridin-8-yl]azetidin-3-yl]acetonitrile]
pKi [2]: 8.19
pKi [3]: 7.73

CCc1cnn(C2(CC#N)CN(c3nccn4nc(Nc5cn[nH]c5)nc34)C2)c1 [Example 153, 2-(1-(2-((1H-pyrazol-4-yl)amino)-[1,2,4]triazolo[1,5-a]pyrazin-8-yl)-3-(4-ethyl-1H-pyrazol-1-yl)azetidin-3-yl)acetonitrile]
pKi [2]: 8.05
pKi [3]: 7.81
